Measurements published in ChEMBL document CHEMBL5523667, “Blood-stage antimalarial activity, favourable metabolic stability and in vivo toxicity of novel piperazine linked 7-chloroquinoline-triazole conjugates” (Eur J Med Chem, 2024).
The source made the active and inactive calls. The calls are words filed in the database; no cut-off is given here.

Experiments:
[1] = test system: Plasmodium berghei; assay: Antimalarial activity against Plasmodium berghei ANKA infected in BALB/c mouse assessed as clearance of gametocytes at 50 to 100 mg/kg, ip p preadministered with phenylhydrazine for 3 days followed by compound administration and measured after 5 days by Giemsa staining based light microscopic analysis relative to control; assay type: functional, organism-based; settings: dose 50-100 mg/kg, time 5.0 day
[2] = test system: Plasmodium falciparum; assay: Antimalarial activity against trophozoite stage chloroquine-sensitive Plasmodium falciparum 3D7 assessed as growth inhibition incubated with compound for 6 hrs and measured 72 hrs post invasion by SYBR Green dye based analysis; assay type: functional, organism-based
[3] = molecular target: T1, Falcipain 2 (Plasmodium falciparum) (UniProt Q9N6S8); assay: Binding affinity to N-terminal 6His-tagged recombinant Plasmodium falciparum FP2 expressed in Escherichia coli M15 assessed as association rate constant (Kon) by surface plasmon resonance analysis
T1 sequence (whole entry): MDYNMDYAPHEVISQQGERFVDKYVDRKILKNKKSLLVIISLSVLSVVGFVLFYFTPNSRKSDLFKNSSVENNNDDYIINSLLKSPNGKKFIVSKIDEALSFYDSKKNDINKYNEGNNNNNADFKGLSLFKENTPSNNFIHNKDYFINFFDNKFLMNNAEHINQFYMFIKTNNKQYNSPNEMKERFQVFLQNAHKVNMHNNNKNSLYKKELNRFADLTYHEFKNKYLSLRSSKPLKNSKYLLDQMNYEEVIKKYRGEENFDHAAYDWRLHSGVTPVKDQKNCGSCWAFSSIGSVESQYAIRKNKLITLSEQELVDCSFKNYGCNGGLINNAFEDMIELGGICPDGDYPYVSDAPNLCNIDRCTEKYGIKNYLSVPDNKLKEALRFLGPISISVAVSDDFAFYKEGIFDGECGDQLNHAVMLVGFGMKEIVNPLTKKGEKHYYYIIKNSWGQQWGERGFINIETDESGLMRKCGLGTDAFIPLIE

[4] = Toxicity in mouse assessed as impairment of short-term memory at 200 mg/kg by novel object recognition test (reference value: 11.87 +/- 3.82 ); assay type: organism-based; settings: in vivo
[5] = Toxicity in mouse assessed as cell death in liver at 100 to 200 mg/kg measured after 7 days by hematoxylin and eosin staining based analysis; assay type: organism-based; settings: in vivo, 168 h, dose 100-200 mg/kg, time 7 day
[6] = Toxicity in mouse assessed as grooming time at 200 mg/kg by open field test (reference value: 10.91 +/- 2.01 sec); assay type: organism-based; settings: in vivo, 2 s
[7] = molecular target: T2, Falcipain-3 (Plasmodium falciparum 3D7, UniProt Q8IIL0); assay: Binding affinity to N-terminal 6His-tagged recombinant Plasmodium falciparum FP3 expressed in Escherichia coli M15 assessed as dissociation constant incubated for 15 mins in presence of lysine reactive dye by microscale thermophoretic analysis
T2 sequence (Q8IIL0 whole entry): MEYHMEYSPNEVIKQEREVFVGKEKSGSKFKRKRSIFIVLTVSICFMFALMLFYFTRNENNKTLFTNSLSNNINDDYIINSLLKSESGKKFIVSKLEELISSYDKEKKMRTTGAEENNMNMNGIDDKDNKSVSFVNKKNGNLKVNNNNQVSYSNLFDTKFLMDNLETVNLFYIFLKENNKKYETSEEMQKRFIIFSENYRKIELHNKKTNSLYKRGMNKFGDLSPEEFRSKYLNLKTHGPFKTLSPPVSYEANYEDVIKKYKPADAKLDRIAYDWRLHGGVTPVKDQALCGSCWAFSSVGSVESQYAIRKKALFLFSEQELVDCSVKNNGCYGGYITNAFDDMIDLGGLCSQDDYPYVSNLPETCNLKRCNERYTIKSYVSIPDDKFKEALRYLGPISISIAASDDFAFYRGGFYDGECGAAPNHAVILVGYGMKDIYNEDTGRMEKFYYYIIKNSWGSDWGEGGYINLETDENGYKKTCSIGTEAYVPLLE

[8] = molecular target: T1, Falcipain 2 (Plasmodium falciparum); assay: Inhibition of N-terminal 6His-tagged recombinant Plasmodium falciparum FP2 expressed in Escherichia coli M15 using Z-Phe-Arg-AMC as substrate at 5 uM measured after 30 mins by microplate reader analysis relative to control
[9] = Toxicity in mouse assessed as effect on food intake at 100 to 200 mg/kg measured for 7 days; assay type: organism-based; settings: in vivo, 168 h, dose 100-200 mg/kg, time 7 day
[10] = molecular target: T2, Falcipain-3; assay: Inhibition of N-terminal 6His-tagged recombinant Plasmodium falciparum FP3 expressed in Escherichia coli M15 using Z-Phe-Arg-AMC as substrate measured after 30 mins by microplate reader analysis
[11] = Drug metabolism in mouse liver S9 fraction assessed as mono-hydroxylation mediated metabolite formation at 2 uM measured for 90 mins by LC-MS/MS analysis; assay type: ADME, subcellular; settings: s9, 1.5 h
[12] = Stability of the compound in tris buffer at pH 7.4 at 1 uM measured after 120 mins by LC-MS/MS analysis; assay type: physicochemical; settings: pH 7.4, 2 h
[13] = Toxicity in mouse assessed as total distance travelled at 200 mg/kg measured over 5 mins by open field arena test (reference value: 12.45 +/- 1.48 meter); assay type: organism-based; settings: in vivo
[14] = Toxicity in mouse assessed as cell death in kidney at 100 to 200 mg/kg measured after 7 days by hematoxylin and eosin staining based analysis; assay type: organism-based; settings: in vivo, 168 h, dose 100-200 mg/kg, time 7 day
[15] = Toxicity in mouse assessed as cell apoptosis in kidney at 100 to 200 mg/kg measured after 7 days by hematoxylin and eosin staining based analysis; assay type: organism-based; settings: in vivo, 168 h, dose 100-200 mg/kg, time 7 day
[16] = Cytotoxicity against CHO cells assessed as reduction in cell viability by MTT assay; assay type: toxicity, cell-based; settings: Chinese hamster (Cricetulus griseus)
[17] = test system: Plasmodium falciparum; assay: Antimalarial activity against chloroquine-sensitive Plasmodium falciparum NF54 assessed as inhibition of parasite growth by lactate dehydrogenase assay; assay type: functional, organism-based
[18] = test system: Plasmodium falciparum; assay: Antimalarial activity against ring stage chloroquine-sensitive Plasmodium falciparum 3D7 assessed as growth inhibition incubated with compound for 6 hrs and measured 72 hrs post invasion by SYBR Green dye based analysis; assay type: functional, organism-based
[19] = test system: Plasmodium falciparum; assay: Antimalarial activity against synchronized-schizont stage chloroquine-sensitive Plasmodium falciparum 3D7 assessed as delay in progression measured upto 60 hrs by Giemsa staining based light microscopic analysis; assay type: functional, organism-based
[20] = Stability of the compound in simulated gastric fluid at pH 1.2 at 1 uM measured after 120 mins by LC-MS/MS analysis; assay type: ADME; settings: simulated gi fluid, pH 1.2, 2 h
[21] = Toxicity in mouse assessed as cell necrosis in kidney at 100 to 200 mg/kg measured after 7 days by hematoxylin and eosin staining based analysis; assay type: organism-based; settings: in vivo, 168 h, dose 100-200 mg/kg, time 7 day
[22] = test system: Plasmodium falciparum; assay: Antimalarial activity against ring stage chloroquine-sensitive Plasmodium falciparum 3D7 assessed as inhibition of parasite growth by SYBR green I dye based assay; assay type: functional, organism-based
[23] = Toxicity in mouse assessed as effect on exploratory activity at 100 to 200 mg/kg measured over 5 mins by open field arena test; assay type: organism-based; settings: in vivo, dose 100-200 mg/kg
[24] = test system: Plasmodium falciparum; assay: Antimalarial activity against ring stage chloroquine-sensitive Plasmodium falciparum 3D7 assessed as growth inhibition incubated for 72 hrs by SYBR Green dye based analysis; assay type: functional, organism-based; settings: 3D7, 72 h
[25] = Toxicity in mouse assessed as total distance travelled at 100 mg/kg measured over 5 mins by open field arena test (reference value: 12.45 +/- 1.48 meter); assay type: organism-based; settings: in vivo
[26] = Toxicity in mouse assessed as latency time to the central area at 100 mg/kg by open field test (reference value: 106.48 +/- 43.19 sec); assay type: organism-based; settings: in vivo, 43 s

Q: What does the source list for `O=C(Cn1cc(CN2CCN(c3ccnc4cc(Cl)ccc34)CC2)nn1)Nc1cccc([N+](=O)[O-])c1`?
A: Activity [1]: Active; IC50 [2]: 1.96 µM; K [3]: 680 M⁻¹ s⁻¹; Activity [4]: 1.889; Activity [5]: Non-Toxic; Time [6]: 14.31 s; Kd [7]: 54.4 µM; inhibition [8]: 27.3%; Activity [9]: Non-Toxic; IC50 [10]: 31.8 µM; Drug metabolism [11]: Metabolite_Detected; Stability [12]: Stable; Activity [13]: 10.75 m; Activity [14]: Non-Toxic; Activity [15]: Non-Toxic; IC50 [16]: 148 µM; IC50 [17]: 0.92 µM; IC50 [18]: 10.2 µM; Activity [19]: Active; Stability [20]: Stable; Activity [21]: Non-Toxic; IC50 [22]: 0.97 µM; Activity [23]: Non-Toxic; IC50 [24]: 0.96 µM; Activity [25]: 11.53 m; Time [26]: 56.23 s
